Laboratory results: patent publication EP0001978A1, “A derivative of thiazolidine-4-carboxylic acid, method for the preparation and pharmaceutical compositions comprising the compound” (Santen Pharmaceutical Co., Ltd, priority 1977, dated 1979)

Columns and labels:
[1] = biological target: T1, angiotensin I-converting enzyme (Cavia porcellus, UniProt H0UWL7); test: Bioassay: contractile response of isolated guinea-pig ileum to angiotensin I; type: cell-based; conditions: angiotensin I 0.125µg/ml, compound added 5 minutes before; for inhibition at 1 µM: final concentration 10^-6 M
T1 construct: Preparation of isolated guinea-pig ileum was made and suspended in the organ bath; from tissue; host or cells: isolated guinea-pig ileum
T1 sequence (H0UWL7 33-1302): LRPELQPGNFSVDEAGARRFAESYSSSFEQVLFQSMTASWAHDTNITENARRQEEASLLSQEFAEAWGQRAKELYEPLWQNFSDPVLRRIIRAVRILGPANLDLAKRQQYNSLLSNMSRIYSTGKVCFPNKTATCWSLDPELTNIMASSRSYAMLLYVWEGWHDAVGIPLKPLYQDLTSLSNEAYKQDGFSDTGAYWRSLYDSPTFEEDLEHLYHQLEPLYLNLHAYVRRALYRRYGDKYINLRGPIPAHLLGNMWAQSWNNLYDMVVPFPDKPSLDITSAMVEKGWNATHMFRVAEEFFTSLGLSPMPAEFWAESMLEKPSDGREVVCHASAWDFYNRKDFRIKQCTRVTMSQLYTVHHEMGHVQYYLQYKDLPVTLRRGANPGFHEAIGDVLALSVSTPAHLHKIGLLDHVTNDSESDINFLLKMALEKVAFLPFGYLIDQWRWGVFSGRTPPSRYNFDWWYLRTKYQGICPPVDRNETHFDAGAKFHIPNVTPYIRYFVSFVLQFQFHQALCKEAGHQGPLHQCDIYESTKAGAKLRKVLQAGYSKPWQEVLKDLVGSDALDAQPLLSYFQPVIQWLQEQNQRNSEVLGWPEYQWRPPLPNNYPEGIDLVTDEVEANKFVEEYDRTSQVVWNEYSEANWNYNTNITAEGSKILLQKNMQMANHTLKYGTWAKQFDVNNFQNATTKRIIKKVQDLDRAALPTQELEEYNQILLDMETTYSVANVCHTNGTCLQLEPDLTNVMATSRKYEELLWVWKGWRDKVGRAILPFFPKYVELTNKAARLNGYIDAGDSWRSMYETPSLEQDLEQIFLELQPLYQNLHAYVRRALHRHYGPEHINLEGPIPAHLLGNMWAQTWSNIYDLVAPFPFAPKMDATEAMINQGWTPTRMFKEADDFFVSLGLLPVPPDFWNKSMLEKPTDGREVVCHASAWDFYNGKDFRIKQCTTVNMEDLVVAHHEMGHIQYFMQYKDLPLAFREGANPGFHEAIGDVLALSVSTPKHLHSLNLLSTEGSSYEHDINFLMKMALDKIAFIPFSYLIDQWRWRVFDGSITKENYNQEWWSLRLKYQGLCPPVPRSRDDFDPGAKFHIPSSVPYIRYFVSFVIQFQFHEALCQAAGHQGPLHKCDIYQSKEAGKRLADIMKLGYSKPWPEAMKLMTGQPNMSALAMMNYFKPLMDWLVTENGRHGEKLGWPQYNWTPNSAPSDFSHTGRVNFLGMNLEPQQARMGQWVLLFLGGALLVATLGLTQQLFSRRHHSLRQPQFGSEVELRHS
Protocol: In the present study, we adopted the bioassay for contractile response of iselated guinea-pig ileum to angiotensin I.
(§1) Measurement of inhibitory activity of angiotensin I-converting enzyme Preparation of isolated guinea-pig ileum was made and suspended in the organ bath containing 20ml of Tyrode's solution gassed 95% 02 + 5% CO2 at 30°C. The contraction induced by angiotensin I (0.125µg/ml) given at intervals of 10 minutes was recorded on a recticerder (Nihon Koden) for 90 seconds using FD pick up (ST-IT-H, Nihon Koden) .
(§2) The test compounds were added to the bath 5 minutes before the addition of angiotensin I.
The inhibitory activity of angiotensin I-converting enzyme was calculated by the following formula: [formula] • A: Contractile intensity of angiotensin I before addition of the compound • B: Contractile intensity of angiotensin I after addition of the compound

kininase II = biological target: T2, kininase II (Cavia porcellus, UniProt H0UWL7); test: Augmentation of contractile response of isolated guinea-pig ileum to bradykinin; type: cell-based
T2 construct: Preparation of isolated guinea-pig ileum was made and suspended in the organ bath; from tissue; host or cells: isolated guinea-pig ileum
T2 sequence (H0UWL7 33-1302): T1 sequence (H0UWL7 33-1302)
Protocol: as §1, §2
(§3) The influence of the compounds on the contractile response of isolated guinea-pig ileum to angiotensin II was examined in the same manner as above. Further, augmentation of the contractile response to bradykinin by the test compounds was studied by the above-mentioned method from the fact that kininase II which destroys bradykinin is thought to be identical with angiotensin I-converting enzyme.

angiotensin II = test: Contractile response of isolated guinea-pig ileum to angiotensin II; type: cell-based; conditions: Cavia porcellus, final concentration 10^-5 M
Protocol: as §1, §2, §3

male ddy-SLC strain rats = test: Acute toxicity test (Miller and Tainter method); type: in vivo; conditions: oral, subcutaneous or intravenous; 30% suspension or 30% solution (pH 7.0); result in words
Protocol: Acute toxicity of the compound of this invention, (4R)-3-[(2S)-3-mercapto-2-methylpropanoyl]-4-thiazolidinecarboxylic acid, is shown in Table 3.
The male ddy-SLC strain rats (5 weeks of age, weighing […]) were placed in a breeding room of constant temperature and humidity (24+1°C, 55+5%) and fed freely pellet diet (CE-2, Clea Japan Inc.) and water for a week. The rats showing the normal growth were selected for the experiment.
30% suspension or 30% solution (pH 7.0) was administered orally, subcutaneously or intravenously and the toxicity was calculated by the Miller and Tainter method.

inhibition at 10 µM ([1]; final concentration 10^-5 M) [%] | Structure (SMILES) | inhibition at 1 µM [1] [%] | inhibition at 0.1 µM ([1]; final concentration 10^-7 M) [%] | Augmentation to BK (%) (kininase II; final concentration 10^-7 M) | Augmentation to BK (%) (kininase II; final concentration 10^-8 M) | Augmentation to BK (%) (kininase II; final concentration 10^-9 M) | inhibition at 10 µM (angiotensin II) [%] | Acute toxicity (male ddy-SLC strain rats)
 | C[C@H](CS)C(=O)N1CSC[C@H]1C(=O)O [Compound A, (4R)-3-[(2S)-3-mercapto-2-methylpropanoyl]-4-thiazolidinecarboxylic acid] | 72.6 | 38.1 | 125.3 | 60.4 | 22.1 | 0 | lower toxicity
59.3 | C[C@@H](CS)C(=O)N1CSC[C@H]1C(=O)O [Compound B, (4R)-3-[(2R)-3-mercapto-2-methylpropanoyl]-4-thiazolidinecarboxylic acid, reference compound] | 24.7 |  | 78.3 | 16.8 |  | 0 | 
